{"source": "patent US20100275276A1", "about": "“ZEBRAFISH MODEL FOR ASSESSING GASTROINTESTINAL MOTILITY” (THE RESEARCH FOUNDATION OF STATE UNIVERSITY OF NEW YORK, priority 2006, published 2010)", "key": {"zebrafish larvae [1]": {"system": "zebrafish larvae", "test": "Fluorescent microsphere spectrophotometric assay of propulsive GI motility", "format": "in vivo", "details": "for Reduction of fluorescence intensity: 11 dpf larvae, one day after loading; for Total fluorescence intensity one day after loading: 11 day old larvae, 10^−5 mg/ml, n=5", "source_text": "Gastrointestinal (GI) motility disorders such as constipation and dyspepsia are common, but current treatment options are largely ineffective, primarily due to a limited understanding of GI motility. The broad objective is to develop a new zebrafish-based model system for GI motility. Muscular contractions of the GI tract may be directly observed in a zebrafish larva, and GI motility has been quantified as contraction frequency. […] The specific objective of this project is to develop an assay to specifically measure propulsion of luminal contents. […] A decrease in fluorescence emission would indicate that ingested microspheres have been eliminated via propulsive motility. Fluorescence spectroscopy was used to quantify the fluorescence intensity as a function of time.\nTotal fluorescence emission averaged 62,630±23,780 counts per sec (n=5 samples, 5 larvae grouped per sample) immediately after ingestion in 11 day old larvae. One day later total fluorescence intensity averaged 53,277±6,333 counts per sec, a 15% decrease (n=5, P<0.05). […] Two prokinetic agents, erythromycin and 5-hydroxytryptamine (10^−5 mg/ml), were used to validate the assay. One day after loading, the total fluorescence intensity decreased after application of erythromycin (69,782±10,423, n=5, P<0.09) and with 5 HT (86,820±21,850, n=5, P<0.003).\nAfter larvae spontaneously ingest the fluorescent micro spheres, which were suspended in the medium that the larvae are in, the larvae were washed and separated into 2 groups. The first group was sacrificed and mashed. The total fluorescence emission was measured from the ‘mashed’ larvae. The second group was sacrificed some time later. If GI motility is functional then some fraction of the micro spheres will have been excreted as a result of GI propulsive motility. The second group was sacrificed and mashed and total fluorescence emission was measured.\nThe difference between Group 1 and Group 2 represents the fraction of beads that has been excreted and this difference is a measure of functional GI propulsive motility."}, "zebrafish larvae [2]": {"system": "zebrafish larvae"}, "zebrafish larvae [3]": {"system": "zebrafish larvae", "test": "Spatiotemporal mapping of spontaneous GI motility", "format": "in vivo", "details": "11 dpf larvae treated with 50 μM Gleevec", "quoted_text": "Spontaneous GI motility occurs at regular intervals and propagates along the GI tract at 11 dpf when ICC are fully present in the GI tract.\nThis Example uses digital imaging and image processing techniques to quantify coordinated GI motility. […] These types of motility can be distinguished in time-lapse digital images.\nThis Example uses a technique, spatiotemporal mapping, that converts a series of images into a single image with dimensions of time and distance. This single image supplies data on movement, and therefore propagation contractions can be visualized and quantified."}, "[4]": {"details": "14 dpf Gleevec treated larvae, Table 1 of Example 8"}, "[5]": {"details": "14 dpf Gleevec treated larvae, per 300 second interval, Table 1 of Example 8"}, "[6]": {"details": "14 dpf larvae, imatinib mesylate 50 μM added at 5 dpf, n = 3"}, "[7]": {"details": "imatinib mesylate 50 μM added at 5 dpf"}}, "note": "Structures can show the parent of a compound that is named as a salt. Where two headings read alike, the source gives them in different places."}
{"smiles": "NCCc1c[nH]c2ccc(O)cc12", "note": "[5-hydroxytryptamine]", "values": [{"measurement": "Reduction of fluorescence intensity", "setting": "zebrafish larvae [1]", "result": 53, "unit": "%"}, {"measurement": "Total fluorescence intensity one day after loading", "setting": "zebrafish larvae [1]", "result": "86,820±21,850 counts per sec"}]}
{"smiles": "CC[C@H]1OC(=O)[C@H](C)[C@@H](O[C@H]2C[C@@](C)(OC)[C@@H](O)[C@H](C)O2)[C@H](C)[C@@H](O[C@@H]2O[C@H](C)C[C@H](N(C)C)[C@H]2O)[C@](C)(O)C[C@@H](C)C(=O)[C@H](C)[C@@H](O)[C@]1(C)O", "note": "[erythromycin]", "values": [{"measurement": "Reduction of fluorescence intensity", "setting": "zebrafish larvae [1]", "result": 23, "unit": "%"}, {"measurement": "Total fluorescence intensity one day after loading", "setting": "zebrafish larvae [1]", "result": "69,782±10,423 counts per sec"}]}
{"smiles": "Cc1ccc(NC(=O)c2ccc(CN3CCN(C)CC3)cc2)cc1Nc1nccc(-c2cccnc2)n1", "note": "[imatinib mesylate]", "values": [{"measurement": "Distance", "setting": "zebrafish larvae [2]; [4]", "result": "399.8 ± 67.2", "unit": "μm"}, {"measurement": "Velocity", "setting": "zebrafish larvae [2]; [4]", "result": "10.2 ± 3.1", "unit": "μm/sec"}, {"measurement": "Total # contractions, Average", "setting": "zebrafish larvae [2]; [5]", "result": "2.3 ± 0.58"}, {"measurement": "Total # contractions, Total", "setting": "zebrafish larvae [2]; [5]", "result": 7}, {"measurement": "Distance", "setting": "zebrafish larvae [2]; [6]", "result": "399.8 ± 67.2", "unit": "μm"}, {"measurement": "Velocity", "setting": "zebrafish larvae [2]; [6]", "result": "10.2 ± 3.1", "unit": "μm/sec"}, {"measurement": "Total # contractions/300 sec", "setting": "zebrafish larvae [2]; 14 dpf larvae, imatinib mesylate 50 μM added to medium at 5 dpf, n = 3", "result": 7, "unit": "contractions/300 sec"}, {"measurement": "Contractions in treated 14 dpf larvae (description)", "setting": "zebrafish larvae [2]; Gleevec treated 14 dpf larvae", "result": "few contractions which were variable and did not fully propagate"}, {"measurement": "Character of the remaining contractions", "setting": "zebrafish larvae [2]; [7]", "result": "unorganized, shorter and slower"}, {"measurement": "Effect on number of contractions", "setting": "zebrafish larvae [2]; [7]", "result": "decrease in the number of contractions"}, {"measurement": "Spontaneous motility (spatiotemporal map)", "setting": "zebrafish larvae [3]", "result": "absent"}]}
